Values of other authors in patent US20090130200A1, “GRANULES FOR CONTROLLED RELEASE OF TAMSULOSIN” (SIEGFRIED GENERICS INTERNATIONAL AG, priority 2004, published 2009).
Where a name gives a salt, the structure may show the parent alone.

- solubility in water: only slightly soluble in water
SMILES: CCOc1ccccc1OCCN[C@H](C)Cc1ccc(OC)c(S(N)(=O)=O)c1 [Tamsulosin hydrochloride]
